Literature values in article PMC3461336 (Biomacromolecules, 2012).

Conditions: without dpA3

PAX solubility in aqueous solvents: < 0.1 µg/mL
SMILES: CC(=O)O[C@H]1C(=O)[C@@]2(C)[C@H]([C@H](OC(=O)c3ccccc3)[C@]3(O)C[C@H](OC(=O)[C@H](O)[C@@H](NC(=O)c4ccccc4)c4ccccc4)C(C)=C1C3(C)C)[C@]1(OC(C)=O)CO[C@@H]1C[C@@H]2O [PAX, Paclitaxel]
